# In patent US4129737A, “Process for the preparation of an 8-alkyl-5-oxo-5,8-dihydro-pyrido(2,3-d)pyrimidine-6-carboxylic acid” (priority 1972, dated 1978):
# Like-named read-outs stand apart in the source and are kept apart here.
# Tests used:
# Format in all cases: cell-based
# [1] = tested on: B. pyocyaneus A22; test: Minimum inhibitory concentration by agar dilution, B. pyocyaneus A22; settings: Pseudomonas aeruginosa
# Method: (§1) (a) Trypticase soya medium (T.S.A.), which is very suitable for culturing the majority of microorganisms; it has the following composition:
# (§2) (b) Ordinarily nutrient agar (N.A.), which is less rich in nutrients, corresponds to the following formulation: […]
# (§3) Table I gives the minimum inhibitory concentrations (expressed in μg/cm^3) for the various microorganisms tested on each medium.
# (§4) The products were tested on three Gram positive microorganisms (1 to 3) […] and on 10 Gram negative microorganisms (4 to 13).
# (§5) Table (II) gives the minimum inhibitory concentrations of the compounds of Examples XII to XVI, determined on the agar medium, N.A., and expressed in μg/cm^3.
# [2] = tested on: Esch. Coli 95; test: Minimum inhibitory concentration by agar dilution, Esch. Coli 95; settings: Escherichia coli
# Method: as §1, §2, §3, §4, §5
# [3] = tested on: B. subtilis; test: Minimum inhibitory concentration by agar dilution, B. subtilis; settings: Bacillus subtilis
# Method: as §1, §2, §3, §4, §5
# [4] = tested on: Streptococcus; test: Minimum inhibitory concentration by agar dilution, Streptococcus Group A
# Method: as §1, §2, §3, §4, §5
# [5] = tested on: B. pyocyaneus TUR; test: Minimum inhibitory concentration by agar dilution, B. pyocyaneus TUR; settings: Pseudomonas aeruginosa, 37° C., 18 hours
# Method: as §1, §2, §3, §4
# [6] = tested on: Sh. sonnei; test: Minimum inhibitory concentration by agar dilution, Sh. sonnei; settings: Shigella sonnei
# Method: as §1, §2, §3, §4, §5
# [7] = tested on: Salm. typhi; test: Minimum inhibitory concentration by agar dilution, Salm. typhi; settings: Salmonella enterica, 18 h
# Method: as §1, §2, §3, §4, §5
# [8] = tested on: Bord. bronchiseptica; test: Minimum inhibitory concentration by agar dilution, Bord. bronchiseptica; settings: Bordetella bronchiseptica
# Method: as §1, §2, §3, §4, §5
# [9] = tested on: Pr. mirabilis; test: Minimum inhibitory concentration by agar dilution, Pr. mirabilis; settings: Proteus mirabilis
# Method: as §1, §2, §3, §4, §5
# [10] = tested on: Pr. vulgaris; test: Minimum inhibitory concentration by agar dilution, Pr. vulgaris; settings: Proteus vulgaris
# Method: as §1, §2, §3, §4, §5
# [11] = tested on: Pr. morganii; test: Minimum inhibitory concentration by agar dilution, Pr. morganii; settings: Morganella morganii
# Method: as §1, §2, §3, §4, §5
# [12] = tested on: Klebs. pneumoniae; test: Minimum inhibitory concentration by agar dilution, Klebs. pneumoniae; settings: Klebsiella pneumoniae
# Method: as §1, §2, §3, §4, §5
# [13] = tested on: Staphylococcus 209 P; test: Minimum inhibitory concentration by agar dilution, Staphylococcus 209 P
# Method: as §1, §2, §3, §4, §5
# [14] = N.A. (nutrient agar, pH 6.8), 37° C., 18 hours, Table I, read-out: minimum inhibitory concentration (M.I.C.)
# [15] = T.S.A. (trypticase soya medium, pH 7.3), 37° C., 18 hours, read-out: minimum inhibitory concentration (M.I.C.)
# [16] = 18 h, pH 6.8, read-out: minimum inhibitory concentration (M.I.C.)
# [17] = A22, 18 h, agar medium, N.A., Table II, read-out: minimum inhibitory concentration
# [18] = 18 h, agar medium, N.A., Table II, read-out: minimum inhibitory concentration
# [19] = read-out: minimum inhibitory concentration
# [20] = 18 h, agar medium, N.A., Table II (Staphylococcus 20 P [sic]), read-out: minimum inhibitory concentration
smiles,measurement,setting,value
"Cn1cc(C(=O)O)c(=O)c2cnc(N3CCN(CCO)CC3)nc21 [Example XI, 2-(4'-β-Hydroxyethyl-piperazino)-5-oxo-8-methyl-5,8-dihydropyrido(2,3-d)pyrimidine-6-carboxylic acid]",MIC,"[1]; A22, N.A. (nutrient agar, pH 6.8), 37° C., 18 hours, Table I, read-out: minimum inhibitory concentration (M.I.C.)",100 µg/mL
same,MIC,"[1]; A22, T.S.A. (trypticase soya medium, pH 7.3), 37° C., 18 hours, read-out: minimum inhibitory concentration (M.I.C.)",> 100 µg/mL
same,MIC,[2]; [14],1.6 µg/mL
same,MIC,[2]; [15],25 µg/mL
same,MIC,[3]; [16],12.5 µg/mL
same,MIC,[3]; [15],100 µg/mL
same,MIC,[4]; [14],25 µg/mL
same,MIC,[4]; [15],> 100 µg/mL
same,MIC,"[5]; N.A. (nutrient agar, pH 6.8), Table I",100 µg/mL
same,MIC,"[5]; T.S.A. (trypticase soya medium, pH 7.3), read-out: minimum inhibitory concentration (M.I.C.)",> 100 µg/mL
same,MIC,[6]; [14],1.6 µg/mL
same,MIC,[6]; [15],12.5 µg/mL
same,MIC,"[7]; pH 6.8, read-out: minimum inhibitory concentration (M.I.C.)",6.2 µg/mL
same,MIC,"[7]; pH 7.3, read-out: minimum inhibitory concentration (M.I.C.)",50 µg/mL
same,MIC,[8]; [16],12.5 µg/mL
same,MIC,[8]; [15],100 µg/mL
same,MIC,[9]; [14],6.2 µg/mL
same,MIC,[9]; [15],25 µg/mL
same,MIC,[10]; [14],25 µg/mL
same,MIC,[10]; [15],50 µg/mL
same,MIC,[11]; [14],3.1 µg/mL
same,MIC,[11]; [15],25 µg/mL
same,MIC,"[12]; 18 h, pH 7.3, read-out: minimum inhibitory concentration (M.I.C.)",12.5 µg/mL
same,MIC,[12]; [14],3.1 µg/mL
same,MIC,"[13]; Staphylococcus, N.A. (nutrient agar, pH 6.8), 37° C., 18 hours, Table I, read-out: minimum inhibitory concentration (M.I.C.)",25 µg/mL
same,MIC,"[13]; Staphylococcus, T.S.A. (trypticase soya medium, pH 7.3), 37° C., 18 hours, read-out: minimum inhibitory concentration (M.I.C.)",> 100 µg/mL
"C=CCN1CCN(c2ncc3c(=O)c(C(=O)O)cn(CC)c3n2)CC1 [XIV, 2-(4'-Allyl-piperazino)-5-oxo-8-ethyl-5,8-dihydro-pyrido(2,3-d)pyrimidine-6-carboxylic acid]",MIC,[1]; [17],25 µg/mL
same,MIC,[2]; [18],50 µg/mL
same,MIC,[3]; [18],3.1 µg/mL
same,MIC,[4]; [18],1.6 µg/mL
same,MIC,[6]; [18],0.8 µg/mL
same,MIC,[7]; [19],3.1 µg/mL
same,MIC,[8]; [18],3.1 µg/mL
same,MIC,[9]; [18],6.2 µg/mL
same,MIC,[10]; [18],3.1 µg/mL
same,MIC,[11]; [18],1.6 µg/mL
same,MIC,[12]; [18],0.4 µg/mL
same,MIC,[13]; [20],3.1 µg/mL
"CCN1CCN(c2ncc3c(=O)c(C(=O)O)cn(CC)c3n2)CC1 [Example XII, 2-(4'-Ethyl-piperazino)-5-oxo-8-ethyl-5,8-dihydro-pyrido(2,3-d)pyrimidine-6-carboxylic acid]",MIC,[1]; [17],100 µg/mL
same,MIC,[2]; [18],0.8 µg/mL
same,MIC,[3]; [18],100 µg/mL
same,MIC,[4]; [18],3.1 µg/mL
same,MIC,[6]; [18],0.8 µg/mL
same,MIC,[7]; [19],0.8 µg/mL
same,MIC,[8]; [18],100 µg/mL
same,MIC,[9]; [18],6.2 µg/mL
same,MIC,[10]; [18],0.8 µg/mL
same,MIC,[11]; [18],0.8 µg/mL
same,MIC,[12]; [18],0.4 µg/mL
same,MIC,[13]; [20],1.6 µg/mL
"CCn1cc(C(=O)O)c(=O)c2cnc(N3CCN(Cc4ccc(OC)cc4)CC3)nc21 [XVI, 2-(4'-p-Methoxybenzyl-piperazino)-5-oxo-8-ethyl-5,8-dihydro-pyrido(2,3-d)pyrimidine-6-carboxylic acid]",MIC,[1]; [17],12.5 µg/mL
same,MIC,[2]; [18],3.1 µg/mL
same,MIC,[3]; [18],50 µg/mL
same,MIC,[4]; [18],0.8 µg/mL
same,MIC,[6]; [18],0.8 µg/mL
same,MIC,[7]; [19],1.6 µg/mL
same,MIC,[8]; [18],12.5 µg/mL
same,MIC,[9]; [18],12.5 µg/mL
same,MIC,[10]; [18],6.2 µg/mL
same,MIC,[11]; [18],1.6 µg/mL
same,MIC,[12]; [18],0.2 µg/mL
same,MIC,[13]; [20],0.4 µg/mL
